Active and inactive are the calls of the source. No cut-off for these calls is given here.
Key:
[1] = test system: Rattus norvegicus; test: Neurotoxicity in Sprague-Dawley rat assessed as convulsions at 100 mg/kg administered as repeated dose for 7 days measured up to 1 month; assay type: toxicity, organism-based; parameters: dose 100 mg/kg; settings: in vivo, 168 h
[2] = Clearance in iv dosed rat; assay type: ADME, organism-based; settings: in vivo
[3] = test system: Rattus norvegicus; test: Gastrointestinal toxicity in Sprague-Dawley rat assessed as decrease in food intake administered as repeated dose for 7 days measured up to 1 month; assay type: organism-based; settings: in vivo, 168 h
[4] = test system: Canis familiaris; test: Gastrointestinal toxicity in beagle dog assessed as decrease in food intake administered as repeated dose for 7 days measured up to 1 month; assay type: organism-based, Canis lupus familiaris; settings: in vivo, 168 h
[5] = test system: Rattus norvegicus; test: Receptor occupancy of 5HT4 receptor in Wistar rat at […], sc; settings: route subcutaneous
[6] = Intrinsic clearance in human liver microsomes; assay type: ADME, Microsome; settings: read-out: CLH
[7] = test system: Rattus norvegicus; test: Procognitive activity in Sprague-Dawley rat assessed as increase in acetylcholine level in prefrontal cortex at 1 mg/kg, sc after 3 hrs by brain microdialysis relative to control; assay type: functional, organism-based; parameters: dose 1 mg/kg
[8] = Ratio of free drug concentration in brain to free drug concentration in plasma in sc dosed Sprague-Dawley rat; assay type: ADME, organism-based; settings: read-out: K(p,uu,brain)
[9] = test system: Rattus norvegicus; test: Gastrointestinal toxicity in male Sprague-Dawley rat assessed as reduction in body weight at 100 mg/kg administered as repeated dose for 7 days measured up to 1 month; assay type: organism-based; parameters: dose 100 mg/kg; settings: in vivo, 168 h
[10] = test system: Canis familiaris; test: Gastrointestinal toxicity in beagle dog assessed as emesis at 30 mg/kg administered as repeated dose for 7 days measured up to 1 month; assay type: organism-based, Canis lupus familiaris; parameters: dose 30 mg/kg; settings: in vivo, 168 h
[11] = test system: Canis familiaris; test: Neurotoxicity in beagle dog assessed as convulsions at 30 mg/kg administered as repeated dose for 7 days measured up to 1 month; assay type: toxicity, organism-based, Canis lupus familiaris; parameters: dose 30 mg/kg; settings: in vivo, 168 h
[12] = Oral bioavailability in dog; assay type: ADME, organism-based, Canis lupus familiaris; settings: in vivo
[13] = test system: Rattus norvegicus; test: Receptor occupancy of 5HT4 receptor in Sprague-Dawley rat brain at 1 mg/kg, sc up to 4 hrs; assay type: functional; settings: route subcutaneous
[14] = test system: Rattus norvegicus; test: Displacement of [3H]SB207145 from 5HT4 receptor in sc dosed Sprague-Dawley rat striatal membrane incubated for 45 mins prior to [3H]SB207145-adminsitration measured after 15 mins; assay type: functional, organism-based; settings: Striatum
[15] = test system: Rattus norvegicus; test: Procognitive activity in Wistar rat assessed as reversal of scopolamine-induced learning deficit at […], sc administered 30 mins prior to scopolamine-challenge measured on acquisition days 3 and 4 by Morris water maze testing; assay type: functional, organism-based; parameters: dose 0.032 mg/kg
[16] = Clearance in iv dosed dog; assay type: ADME, organism-based, Canis lupus familiaris; settings: in vivo
[17] = test system: Canis familiaris; test: Cardiotoxicity in beagle dog assessed as increase in systolic blood pressure at 10 mg/kg administered as repeated dose for 7 days measured up to 1 month; assay type: toxicity, organism-based, Canis lupus familiaris, Artery; parameters: dose 10 mg/kg; settings: in vivo, 168 h
[18] = Oral bioavailability in rat; assay type: ADME, organism-based; settings: in vivo
[19] = test system: Plasma; test: Free AUC (0 to 4 hrs) in sc dosed Sprague-Dawley rat plasma by LC-MS/MS analysis; assay type: ADME, organism-based; settings: in vivo
[20] = AUC (0 to 4 hrs) in sc dosed Sprague-Dawley rat CSF by LC-MS/MS analysis; assay type: ADME, organism-based; parameters: time < 4 hr, route subcutaneous
[21] = biological target: CYP2D6 (Homo sapiens, UniProt P10635); test: Inhibition of CYP2D6 in human liver microsomes using dextromethorphan as substrate at 3 uM; assay type: ADME, Microsome; settings: probe dextromethorphan
CYP2D6, sequence (P10635 whole entry): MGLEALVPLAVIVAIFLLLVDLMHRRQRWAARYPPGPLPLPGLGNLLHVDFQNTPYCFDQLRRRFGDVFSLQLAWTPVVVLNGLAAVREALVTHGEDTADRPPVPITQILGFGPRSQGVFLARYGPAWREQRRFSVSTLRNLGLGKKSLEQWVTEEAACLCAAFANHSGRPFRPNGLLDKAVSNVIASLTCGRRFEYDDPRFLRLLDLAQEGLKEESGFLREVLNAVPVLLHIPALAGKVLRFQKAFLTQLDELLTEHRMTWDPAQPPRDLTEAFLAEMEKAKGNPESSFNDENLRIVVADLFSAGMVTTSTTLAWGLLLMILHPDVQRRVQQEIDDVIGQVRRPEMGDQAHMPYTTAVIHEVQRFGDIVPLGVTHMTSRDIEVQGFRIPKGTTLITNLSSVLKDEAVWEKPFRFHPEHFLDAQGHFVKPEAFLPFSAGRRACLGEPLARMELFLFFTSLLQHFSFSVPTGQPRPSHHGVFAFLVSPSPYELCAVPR

[22] = test system: Brain; test: Free AUC (0 to 4 hrs) in sc dosed Sprague-Dawley rat brain by LC-MS/MS analysis; assay type: ADME, organism-based; settings: in vivo
[23] = Intrinsic clearance in dog liver microsomes; assay type: ADME, Canis lupus familiaris, Microsome; settings: read-out: CLH
[24] = Intrinsic clearance in rat liver microsomes; assay type: ADME, Microsome; settings: read-out: CLH
[25] = Apparent permeability from apical to basal side of RRCK cells at 2 uM after 2 hrs by transwell assay; assay type: ADME, cell-based, Canis lupus familiaris, MDCKII-LE; settings: dog, MDCK

OC1(CN2CCC(COc3noc4cccc(O[C@@H]5CCOC5)c34)CC2)CCOCC1 [PF-04995274]
Activity [1]: Toxic
clearance [2]: 81.8 mL/min/kg
Activity [3]: Toxic
Activity [4]: Toxic
Occ [5]: >90%
CLint scaled [6]: 33 mL/min/kg
Activity [7]: Active
Kp uu [8]: 0.7
Activity [9]: Toxic
Activity [10]: Toxic
Activity [11]: Toxic
bioavailability [12]: 47%
Occ [13]: >90%
Activity [14]: Dose-dependent effect
Activity [15]: Active
clearance [16]: 21.2 mL/min/kg
Activity [17]: Toxic
bioavailability [18]: 40%
fAUC [19]: 1.054 µM·h
AUC(0-t) at 4 h [20]: 0.519 µM·h
inhibition at 3 µM [21]: 13%
fAUC [22]: 0.706 µM·h
CLint scaled [23]: 27.9 mL/min/kg
CLint scaled [24]: 48.9 mL/min/kg
Papp A→B at 2 h, 2 µM [25]: 30 ×10⁻⁶ cm/s

From ChEMBL document CHEMBL2176907, “Identification of multiple 5-HT₄ partial agonist clinical candidates for the treatment of Alzheimer's disease” (J Med Chem, 2012)
